Active and inactive are the calls of the source. How the calls were made is not given here.
System: CCRIS mutagenicity, Ames/micronucleus/aberration tests
Assay: CCRIS mutagenicity studies
[1] = Test System: AMES SALMONELLA TYPHIMURIUM, Strain/Indicator: TA98, Metabolic Activation: NONE, Method: PREINCUBATION
[2] = Test System: AMES SALMONELLA TYPHIMURIUM, Strain/Indicator: TA98, Metabolic Activation: NONE, Method: STANDARD PLATE
[3] = Test System: AMES SALMONELLA TYPHIMURIUM, Strain/Indicator: TA100, Metabolic Activation: NONE, Method: PREINCUBATION

CC(=O)Nc1ccc(N=Nc2cc(C)ccc2O)cc1
mutagenic call (End Point: IN VITRO CHROMOSOMAL ABERRATIONS, Test System: CHO CELLS, Metabolic Activation: NONE): inactive; negative | mutagenic call (End Point: IN VITRO CHROMOSOMAL ABERRATIONS, Test System: CHO CELLS, Metabolic Activation: RAT, LIVER, S-9, AROCLOR 1254): inactive; negative | mutagenic call (Test System: AMES SALMONELLA TYPHIMURIUM, Strain/Indicator: TA97, Metabolic Activation: HAMSTER, LIVER, S-9, AROCLOR 1254 (10%), Method: PREINCUBATION): active; positive | mutagenic call (Test System: AMES SALMONELLA TYPHIMURIUM, Strain/Indicator: TA97, Metabolic Activation: NONE, Method: PREINCUBATION): active; positive | mutagenic call (Test System: AMES SALMONELLA TYPHIMURIUM, Strain/Indicator: TA97, Metabolic Activation: RAT, LIVER, S-9, AROCLOR 1254 (10%), Method: PREINCUBATION): active; positive | mutagenic call (Test System: AMES SALMONELLA TYPHIMURIUM, Strain/Indicator: TA98, Metabolic Activation: HAMSTER, LIVER, S-9, AROCLOR 1254 (5, 10, 20%), Method: PREINCUBATION): active; positive | mutagenic call (Test System: AMES SALMONELLA TYPHIMURIUM, Strain/Indicator: TA98, Metabolic Activation: HAMSTER, LIVER, S-9, AROCLOR 1254 (10%), Method: PREINCUBATION): active; positive | mutagenic call (Test System: AMES SALMONELLA TYPHIMURIUM, Strain/Indicator: TA98, Metabolic Activation: HAMSTER, LIVER, S-9, AROCLOR 1254, Method: STANDARD PLATE): active; positive | mutagenic call (Test System: AMES SALMONELLA TYPHIMURIUM, Strain/Indicator: TA98, Metabolic Activation: HAMSTER, LIVER, S-9, Method: PREINCUBATION (PRIVAL METHOD)): active; positive | mutagenic call [1]: active; positive | mutagenic call [2]: active; positive | mutagenic call (Test System: AMES SALMONELLA TYPHIMURIUM, Strain/Indicator: TA98, Metabolic Activation: RAT, LIVER, S-9, AROCLOR 1254 (10%), Method: PREINCUBATION): active; positive | mutagenic call (Test System: AMES SALMONELLA TYPHIMURIUM, Strain/Indicator: TA98, Metabolic Activation: RAT, LIVER, S-9, AROCLOR 1254, HAMSTER, LIVER, S-9, AROCLOR 1254, Method: STANDARD PLATE): active; positive | mutagenic call (Test System: AMES SALMONELLA TYPHIMURIUM, Strain/Indicator: TA100, Metabolic Activation: HAMSTER, LIVER, S-9, AROCLOR 1254 (10%), Method: PREINCUBATION): active; positive | mutagenic call (Test System: AMES SALMONELLA TYPHIMURIUM, Strain/Indicator: TA100, Metabolic Activation: HAMSTER, LIVER, S-9, AROCLOR 1254, Method: STANDARD PLATE): active; positive | mutagenic call (Test System: AMES SALMONELLA TYPHIMURIUM, Strain/Indicator: TA100, Metabolic Activation: HAMSTER, LIVER, S-9, Method: PREINCUBATION (PRIVAL METHOD)): active; positive | mutagenic call [3]: active; positive | mutagenic call (Test System: AMES SALMONELLA TYPHIMURIUM, Strain/Indicator: TA100, Metabolic Activation: RAT, LIVER, S-9, AROCLOR 1254 (10%), Method: PREINCUBATION): active; positive | mutagenic call (Test System: AMES SALMONELLA TYPHIMURIUM, Strain/Indicator: TA1535, Metabolic Activation: HAMSTER, LIVER, S-9, AROCLOR 1254 (10%), Method: PREINCUBATION): inactive; negative | mutagenic call (Test System: AMES SALMONELLA TYPHIMURIUM, Strain/Indicator: TA1535, Metabolic Activation: NONE, Method: PREINCUBATION): inactive; negative | mutagenic call (Test System: AMES SALMONELLA TYPHIMURIUM, Strain/Indicator: TA1535, Metabolic Activation: RAT, LIVER, S-9, AROCLOR 1254 (10%), Method: PREINCUBATION): inactive; negative | mutagenic call (Test System: AMES SALMONELLA TYPHIMURIUM, Strain/Indicator: TA1537, Metabolic Activation: NONE, Method: STANDARD PLATE): active; positive | mutagenic call (Test System: AMES SALMONELLA TYPHIMURIUM, Strain/Indicator: TA1537, Metabolic Activation: RAT, LIVER, S-9, AROCLOR 1254, HAMSTER, LIVER, S-9, AROCLOR 1254, Method: STANDARD PLATE): active; positive | mutagenic call (Test System: AMES SALMONELLA TYPHIMURIUM, Strain/Indicator: TA1538, Metabolic Activation: NONE, Method: STANDARD PLATE): active; positive | mutagenic call (Test System: AMES SALMONELLA TYPHIMURIUM, Strain/Indicator: TA1538, Metabolic Activation: RAT, LIVER, S-9, AROCLOR 1254, HAMSTER, LIVER, S-9, AROCLOR 1254, Method: STANDARD PLATE): active; positive | mutagenic call (Test System: Mouse lymphoma, Strain/Indicator: L5178Y (tk+/tk-), Metabolic Activation: None, Method: Suspension/Plate): inactive; negative | mutagenic call (Test System: Mouse lymphoma, Strain/Indicator: L5178Y (tk+/tk-), Metabolic Activation: Rat, Liver, S-9, Aroclor 1254, Method: Suspension/Plate): inactive; inconclusive (previous evaluation negative)

CCC1C(=O)O[C@@H]2CCN(C)C/C=C(/COC(=O)[C@](C)(O)[C@H](C)[C@@H]1O)C2=O (stereo not given in full)
mutagenic call (Test System: UDS RAT HEPATOCYTES, Strain/Indicator: THY INCORP, Metabolic Activation: NONE, Method: AUTORADIOGRAPHY): active; positive

Cc1cccc(C(=O)Cl)c1
mutagenic call [1]: inactive; negative | mutagenic call (Test System: AMES SALMONELLA TYPHIMURIUM, Strain/Indicator: TA98, Metabolic Activation: RAT LIVER S-9, PCB, Method: PREINCUBATION): inactive; negative | mutagenic call [3]: inactive; negative | mutagenic call (Test System: AMES SALMONELLA TYPHIMURIUM, Strain/Indicator: TA100, Metabolic Activation: RAT LIVER S-9, PCB, Method: PREINCUBATION): active; positive | mutagenic call (Test System: AMES SALMONELLA TYPHIMURIUM, Strain/Indicator: TA104, Metabolic Activation: NONE, Method: PREINCUBATION): active; positive | mutagenic call (Test System: AMES SALMONELLA TYPHIMURIUM, Strain/Indicator: TA104, Metabolic Activation: RAT LIVER S-9, PCB, Method: PREINCUBATION): active; positive | mutagenic call (Test System: E.COLI, Strain/Indicator: WP2 UVRA, Metabolic Activation: NONE, Method: PREINCUBATION): active; positive | mutagenic call (Test System: E.COLI, Strain/Indicator: WP2 UVRA, Metabolic Activation: RAT LIVER S-9, PCB, Method: PREINCUBATION): active; positive

ClC(Cl)C(Cl)Cl
mutagenic call (End Point: IN VITRO CHROMOSOMAL ABERRATIONS, Test System: CHINESE HAMSTER OVARY CELLS, Metabolic Activation: NONE): inactive; negative; precipitation occurred at 653 ug/ml | mutagenic call (End Point: IN VITRO CHROMOSOMAL ABERRATIONS, Test System: CHINESE HAMSTER OVARY CELLS, Metabolic Activation: RAT, LIVER, S-9, AROCLOR 1254): inactive; negative | mutagenic call (Test System: AMES SALMONELLA TYPHIMURIUM, Strain/Indicator: TA97, Metabolic Activation: NONE, Method: STANDARD PLATE): active; positive | mutagenic call (Test System: AMES SALMONELLA TYPHIMURIUM, Strain/Indicator: TA97, Metabolic Activation: RAT, LIVER, S-9, AROCLOR 1254, Method: STANDARD PLATE): active; positive | mutagenic call [2]: active; positive | mutagenic call (Test System: AMES SALMONELLA TYPHIMURIUM, Strain/Indicator: TA98, Metabolic Activation: RAT, LIVER, S-9, AROCLOR 1254, Method: STANDARD PLATE): active; positive | mutagenic call (Test System: AMES SALMONELLA TYPHIMURIUM, Strain/Indicator: TA100, Metabolic Activation: NONE, Method: STANDARD PLATE): active; positive | mutagenic call (Test System: AMES SALMONELLA TYPHIMURIUM, Strain/Indicator: TA100, Metabolic Activation: RAT, LIVER, S-9, AROCLOR 1254, Method: STANDARD PLATE): active; positive | mutagenic call (Test System: AMES SALMONELLA TYPHIMURIUM, Strain/Indicator: TA104, Metabolic Activation: NONE, Method: STANDARD PLATE): inactive; negative | mutagenic call (Test System: AMES SALMONELLA TYPHIMURIUM, Strain/Indicator: TA104, Metabolic Activation: RAT, LIVER, S-9, AROCLOR 1254, Method: STANDARD PLATE): active; positive | mutagenic call (Test System: AMES SALMONELLA TYPHIMURIUM, Strain/Indicator: TA1530, Metabolic Activation: NONE, Method: SPOT): active; positive | mutagenic call (Test System: AMES SALMONELLA TYPHIMURIUM, Strain/Indicator: TA1535, Metabolic Activation: NONE, Method: SPOT): active; positive

O=Cc1c([N+](=O)[O-])cccc1[N+](=O)[O-]
mutagenic call [1]: active; positive | mutagenic call (Test System: AMES SALMONELLA TYPHIMURIUM, Strain/Indicator: TA98, Metabolic Activation: RAT, LIVER, S-9, PHENOBARBITAL AND 5,6-BENZOFLAVONE, Method: PREINCUBATION): inactive; negative | mutagenic call (Test System: AMES SALMONELLA TYPHIMURIUM, Strain/Indicator: TA100(1,8-DNP6), Metabolic Activation: NONE, Method: SUSPENSION/PLATE): active; positive | mutagenic call (Test System: AMES SALMONELLA TYPHIMURIUM, Strain/Indicator: TA100(NR), Metabolic Activation: NONE, Method: SUSPENSION/PLATE): active; positive | mutagenic call [3]: active; positive | mutagenic call (Test System: AMES SALMONELLA TYPHIMURIUM, Strain/Indicator: TA100, Metabolic Activation: NONE, Method: SUSPENSION/PLATE): active; positive | mutagenic call (Test System: AMES SALMONELLA TYPHIMURIUM, Strain/Indicator: TA100, Metabolic Activation: RAT, LIVER, S-9, PHENOBARBITAL AND 5,6-BENZOFLAVONE, Method: PREINCUBATION): active; positive

Reference: PubChem BioAssay AID1259407 (Chemical Carcinogenesis Research Information System (CCRIS), 2018)
